Patent US9296755B2, “3,4-dihydro-1H-pyrimido[1,6-a]pyrimidin-6(2H)-one compounds and their therapeutic applications” (GlaxoSmithKline Intellectual Property Development Limited, priority 2013, dated 2016)

Tests used:
Lp-PLA2 [1] = assay: Plasma Lp-PLA2 activity and LysoPC in rat EAE plasma; assay type: in vivo
Protocol: (§1) A further study was carried out to study the impact of Lp-PLA2 inhibitors on modulating M1/M2 imbalance. In this study, rats were induced to develop experimental autoimmune encephalomyelitis (EAE) by immunization with myelin basic protein (MBP) antigen and treated with a known Lp-PLA2 inhibitor: 5-((9-Methoxy-4-oxo-6,7-dihydro-4H-pyrimido[6,1-a]isoquinolin-2-yl)oxy)-2-(3-(trifluoromethyl)phenoxy)benzonitrile (See PCT application no. PCT/CN2011/001597). In this preventive treatment model, the compound was administered at day 0 (day of immunization) and continued to administer until day 22. The study lasted for 25 days. Rats were subsequently monitored for symptoms of EAE. Rats were immunized with MBP to develop EAE and symptoms were monitored daily. Plasma Lp-PLA2 activity, OxLDL, and LysoPC concentration were determined at different time points through the course of EAE.

Lp-PLA2 [2] = target: T1, Lp-PLA2 (Rattus norvegicus, UniProt A6JJ35); assay: as above; assay type: in vivo
T1 construct: from tissue; host or cells: plasma of EAE rats
T1 sequence (A6JJ35 22-440): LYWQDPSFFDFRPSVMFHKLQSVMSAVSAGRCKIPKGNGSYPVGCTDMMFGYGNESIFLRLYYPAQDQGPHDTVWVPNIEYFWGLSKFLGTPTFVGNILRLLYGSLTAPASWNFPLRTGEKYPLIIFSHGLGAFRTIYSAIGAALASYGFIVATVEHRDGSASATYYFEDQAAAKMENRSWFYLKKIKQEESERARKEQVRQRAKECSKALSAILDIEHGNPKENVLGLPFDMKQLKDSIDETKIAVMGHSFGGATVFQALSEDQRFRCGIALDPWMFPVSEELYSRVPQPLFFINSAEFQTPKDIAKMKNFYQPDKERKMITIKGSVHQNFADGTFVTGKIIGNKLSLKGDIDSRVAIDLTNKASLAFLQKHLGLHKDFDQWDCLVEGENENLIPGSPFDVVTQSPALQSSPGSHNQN
Protocol: as §1

[3] = tested on: proinflammatory (M1) and anti-inflammatory (M2) markers; assay: Ex vivo analysis of M1 and M2 markers in macrophages of EAE rats by realtime PCR; design: species or system rat; settings: splenic macrophages day 13 post MBP-immunization and CNS infiltrating macrophages
Protocol: Ex vivo analysis of proinflammatory (M1) and anti-inflammatory (M2) markers in control and compound treated EAE rats. Splenic macrophages were harvested at day 13 post MBP-immunization and assayed for expression of a variety of markers by realtime PCR. CNS infiltrating cells were harvested and macrophages were analyzed for expression of M1 and M2 markers by realtime PCR.

rat EAE model = assay: Rat experimental autoimmune encephalomyelitis (EAE) model, preventive treatment; assay type: in vivo; settings: MBP immunization, administered day 0 to day 22
Protocol: as §1

[4] = target: Recombinant human PLA2 VIIB (Homo sapiens, UniProt Q99487); assay: PLA2 VIIB assay; assay type: biochemical
Excerpt: PLA2 VIIB (also known as Novel Serine Dependent Lipase, NSDL) is a serine hydrolase with 40% amino acid identity with human Lp-PLA2. Sequence comparisons indicate that the PLA VIIB active site catalytic triad positions are similar to those of Lp-PLA2. Similar to Lp-PLA2, it is capable of hydrolyzing oxidatively modified phospholipids and may be assayed using known Lp-PLA2 substrates.
Upon cleavage by a phopholipase, […] liberates a fluorescent Bodipy group. Recombinant human PLA2 VIIB is used as the phospholipase source in this assay, and compounds are screened to test their degree of inhibition in this assay. The assay is used to determine the degree of selectivity of the testing compounds between PLA2 VIIB and Lp-PLA2.
The PLA2 VIIB assay was applied as an unquenched 10 μL assay. The source plate containing the compounds is prepared by making 1:3 (by volume) serial dilution of the compounds with pure DMSO on 384-well microplate. 0.01 μL of compounds on the compound source plate were transferred into 384 well Greiner 784076 (black) plates by ECHO liquid dispenser. 5 μL of Novel Serine Dependent Lipase (NSDL) enzyme (5 nM NSDL in assay buffer of 50 mM HEPES, pH 7.4, 150 mM NaCl, 1 mM CHAPS) was added to each well. […] Plates were kinetic read by starting read immediately after PED6 addition at ex: 480/em:540 using ViewLux microplate reader or Envision spectrofluorimeters. […]

| Lp-PLA2 activity in rat EAE plasma (Lp-PLA2 [2]) | selectivity between human recombinant Lp-PLA2 and PLA2 VIIB [4] [fold] | SMILES | LysoPC levels in rat EAE plasma (Lp-PLA2 [1]) | M1 markers [3] | M2 markers [3] | clinical disease (EAE) (rat EAE model) |
| --- | --- | --- | --- | --- | --- | --- |
| decreased |  | COc1ccc2c(c1)CCn1c-2cc(Oc2ccc(Oc3cccc(C(F)(F)F)c3)c(C#N)c2)nc1=O [5-((9-Methoxy-4-oxo-6,7-dihydro-4H-pyrimido[6,1-a]isoquinolin-2-yl)oxy)-2-(3-(trifluoromethyl)phenoxy)benzonitrile] | decreased | decrease | increase | reduction in clinical disease |
|  | ≤ 100 | Cc1ccccc1CN1CCCn2c1cc(OCc1ccc(F)c(F)c1)nc2=O [Example E7, 8-((3,4-difluorobenzyl)oxy)-1-(2-methylbenzyl)-3,4-dihydro-1H-pyrimdo[1,6-a]pyrimidin-6(2H)-one] |  |  |  |  |
